Test results published in patent US7892350B2, “Sacrificial agents for fly ash concrete” (Boral Material Technologies Inc., priority 2003, dated 2011).
Read-outs that look alike come from different tables or passages of the source.

Assay: Second sacrificial agent testing protocol: paste air measurements with DDBS (0.0125 wt %) and rating; for Overall performance rating (second protocol rating): key: 0: Fail; 1: Poor; 2: Good; 3: Preferred; 4: Most preferred; for SA Rating (0-4): key: 0: Fail; 1: Poor; 2: Good; 3: Preferred; 4: Most preferred
Description: The second sacrificial agents evaluation protocol has been designed to assess the relative potential value of candidate sacrificial agents with a maximum of five paste air measurements.
The first two measurements (of entrained air) are carried out with a standard AEA in a portland cement paste and in a FA:cement paste; these two tests provide reference values which can be used for the relative assessment of a series of sacrificial agents. The other three paste air measurements pertain to the properties and effectiveness of the sacrificial agents.
1. Measurement of the air entrained by a standard air-entraining admixture in a cement paste of fixed composition and fluidity; the latter is a reference system which provides ‘reference’ air entrainment values (‘A’ in FIG. 8).
2. […] The difference between ‘B’ and ‘A’ in FIG. 8 is the reduction in air entrainment due to the presence of the fly ash; this is illustrated as ‘C’ in FIG. 8.
In the present SA testing and evaluation protocol, the fly ash selected should remain the same for the entire set of additives tested, in order to provide reliable relative performance ranking. For the present series of test, the Fly Ash selected was the one identified as B1 in Table 1 below; the physico-chemical properties of this fly ash are reported in Table 1.
In testing for the relative performance of the sacrificial agent, the sacrificial agent dosage was chosen in the range 0-0.1 wt %, which corresponds to typical dosage values observed in paste, mortar and concrete tests reported in Tables 2, 3 and 4 and Tables 7 to 34.
3. Measurement of the air entrainment of the SA, by itself, in a cement-only paste at a dosage of 0.1 wt %; this is illustrated as ‘D’ in FIG. 8.
4. Measurement of the air entrained by DDBS in the FA-cement paste comprising 0.05% wt SA, under the same conditions as described in 2 above. The air entrainment value observed in this system, compared to that observed in the absence of the SA, yields the air recovery due to the SA, and is illustrated schematically as ‘E’ in FIG. 8.
5. Same as in 4 above, but with a higher SA concentration at 0.1 wt %; the air entrainment observed, again compared to the value observed in the absence of the SA, yields a second value of air recovery by the SA and is illustrated as ‘F’ in FIG. 8.
For the relative performance rating of the group of products chosen as potential SA and listed in Table 36, the following rating scheme (Tables A and B) was adopted (referring to FIG. 8 and quantities defined therein):
1: Chemical name of compound tested as potential sacrificial agent • Col. 2: Level of air entrainment by the candidate sacrificial agent, at a concentration of 0.1 wt %, in a Portland cement paste ([…]) • Col. […] 5: Sacrificial agent overall rating index (described below) • Col. 6: Hydrophilic-Lipophilic Balance (HLB) values of candidate sacrificial agent (source and significance of HLB data given below) • Col. 7: Logarithm of the Oil(octanol)/water partition coefficient (Kow) of the candidate sacrificial agents (source and significance of data given below).

[1] = Portland cement paste (PCA), […]
[2] = sacrificial agent overall rating index
[3] = sum of ratings of air entrainment recovery by 0.05% and 0.1% SA, DDBS 0.0125 wt %, 50:50 B1 fly ash:cement paste
[4] = B1 FA/cement paste, 0.0125 wt % DDBS, 0.05 wt % SA
[5] = B1 FA/cement paste, 0.0125 wt % DDBS, 0.10 wt % SA

Row | Molecule | B1 + 0.0125% DDBS + 0.05% SA (air entrainment) (B1 FA/cement paste, […]) | B1 + 0.0125% DDBS + 0.1% SA (air entrainment) (B1 FA/cement paste, […]) | PCA + 0.1% SA (level of air entrainment by the candidate sacrificial agent) [1] | SA Rating (0-4) [2] | B1 + 0.0125% DDBS + 0.1% SA (air entrainment) [5] | further results
1 | Cl.NCC(N)C(=O)O (stereo not shown) | 1.7 | 1.9 | 0.3 | 0 | – | –
2 | CCC(C)O (stereo not shown) [2-Butanol] | – | – | – | – | – | B1 + 0.0125% DDBS + 0.05% SA (air entrainment): 6.0; B1 + 0.0125% DDBS + 0.1% SA (air entrainment): 6.6; Overall performance rating (second protocol rating): 4; PCA + 0.1% SA (level of air entrainment by the candidate sacrificial agent): 1.4; SA Rating (0-4): 4
3 | CCOCCOC(C)=O [E.G. mono-ethyl ether acetate] | – | – | – | – | – | B1 + 0.0125% DDBS + 0.05% SA (air entrainment): 4.7; B1 + 0.0125% DDBS + 0.1% SA (air entrainment): 4.7; PCA + 0.1% SA (level of air entrainment by the candidate sacrificial agent): 0.0; SA Rating (0-4): 2
4 | CC(=O)CC(C)C [Methyl isobutylketone] | – | – | – | – | – | Overall performance rating (second protocol rating) [3]: 2
5 | OC[C@@H](O)[C@@H](O)[C@H](O)[C@@H](O)CO [Sorbitol] | 2.2 | 4.2 | 0.5 | 1 | – | Overall performance rating (second protocol rating): 1
6 | O=P(O)(O)OP(=O)(O)OP(=O)(O)O [Sodium tripolyphosphate] | – | – | 0.2 | 0 | 1.9 | B1 + 0.0125% DDBS + 0.05% SA (air entrainment) [4]: 2.2
7 | O=S(=O)([O-])c1ccc2cc(S(=O)(=O)[O-])ccc2c1.[Na+].[Na+] [2,6-naphthalene disulfonate Na] | – | – | – | – | – | B1 + 0.0125% DDBS + 0.05% SA (air entrainment): 2.3; B1 + 0.0125% DDBS + 0.1% SA (air entrainment): 3.0; PCA + 0.1% SA (level of air entrainment by the candidate sacrificial agent): 0.0; SA Rating (0-4): 0
8 | O=S(=O)([O-])c1cc(O)c2c(O)cc(S(=O)(=O)[O-])cc2c1.[Na+].[Na+] | 2.0 | 2.5 | 0.0 | 0 | – | –
9 | CC[N+](CC)(CC)CC.[OH-] [Tetraethyl ammonium hydroxide] | – | – | – | – | – | B1 + 0.0125% DDBS + 0.05% SA (air entrainment): 2.3; B1 + 0.0125% DDBS + 0.1% SA (air entrainment): 3.0; PCA + 0.1% SA (level of air entrainment by the candidate sacrificial agent): 0.1; SA Rating (0-4): 0
10 | CC1=CCC2CC1C2(C)C (stereo not drawn) [Alpha-Pinene] | 2.4 | 2.9 | 0.4 | 0 | – | –
11 | COc1ccc(OC)cc1 [p-Dimethoxybenzene] | 4.7 | 4.0 | 0.7 | 2 | – | Overall performance rating (second protocol rating): 2
12 | CCCN(CCC)CCC [Tripropylamine] | 2.6 | 2.4 | 0.3 | 0 | – | –
13 | CNC(=O)NC [Dimethylurea] | – | – | 0.5 | 2 | 2.9 | Overall performance rating (second protocol rating) [3]: 2
14 | CCC(C)=O [2-Butanone] | – | – | – | – | – | Overall performance rating (second protocol rating): 1
15 | C[S+](C)[O-] [Dimethylsulfoxide] | 2.5 | 3.1 | 0.0 | 0 | – | –
16 | CCCCCCCCCCCC(=O)OC [Methyllaurate] | – | – | 1.0 | 1 | 2.8 | B1 + 0.0125% DDBS + 0.05% SA (air entrainment) [4]: 4.6; Overall performance rating (second protocol rating) [3]: 1
17 | O=C(O)CCCCC(=O)O [Adipic acid] | 1.9 | 2.2 | 0.2 | 0 | – | –
18 | CC(C)COCCO [Ethylene Glycol iso-Butyl Ether] | – | – | 1.7 | 4 | 9.5 | B1 + 0.0125% DDBS + 0.05% SA (air entrainment) [4]: 8.8; Overall performance rating (second protocol rating) [3]: 4

Row | Molecule | B1 + 0.0125% DDBS + 0.05% SA (air entrainment) (B1 FA/cement paste, […]) | B1 + 0.0125% DDBS + 0.1% SA (air entrainment) (B1 FA/cement paste, […]) | PCA + 0.1% SA (level of air entrainment by the candidate sacrificial agent) [1] | SA Rating (0-4) [2] | B1 + 0.0125% DDBS + 0.1% SA (air entrainment) [5] | further results
19 | CCOCCOC(C)=O [Ethylene glycol mono-ethyl ether acetate] | – | – | – | – | – | Overall performance rating (second protocol rating): 2
20 | CCOC(C)=O [Ethyl acetate] | 3.2 | 3.3 | 0.8 | 0 | – | –
21 | O=C(O)c1ccc(O)cc1 [4-Hydroxybenzoic acid] | 2.1 | 2.4 | 1.0 | 0 | – | –
22 | CCCCCCCC/C=C\CCCCCCCC(=O)OC [Methyloleate] | – | – | 0.5 | 2 | 2.7 | B1 + 0.0125% DDBS + 0.05% SA (air entrainment) [4]: 5.1; Overall performance rating (second protocol rating) [3]: 2
23 | Polyethylene glycol 2000 | – | – | – | – | – | Overall performance rating (second protocol rating) [3]: 4
24 | CCC(O)CC [3-Pentanol] | – | – | 0.5 | 4 | 6.3 | B1 + 0.0125% DDBS + 0.05% SA (air entrainment) [4]: 6.1; Overall performance rating (second protocol rating) [3]: 4
25 | CCCCN [n-butyl amine] | 5.7 | 8.1 | 1.2 | 4 | – | Overall performance rating (second protocol rating): 4
26 | CCCCCCCCCCCCCCCC(=O)OC [Methylpalmitate] | 5.3 | 3.4 | 2.5 | 2 | – | Overall performance rating (second protocol rating): 2
27 | O=C(O)c1ccc2ccccc2c1 [2-Naphthoic acid] | – | – | 1.3 | 1 | 4.2 | B1 + 0.0125% DDBS + 0.05% SA (air entrainment) [4]: 3.2; Overall performance rating (second protocol rating) [3]: 1
28 | 1-Octanol | – | – | 0.0 | 0 | 1.4 | B1 + 0.0125% DDBS + 0.05% SA (air entrainment) [4]: 2.1
29 | CC(C)(C)O [tert-Butanol] | 6.3 | 7.0 | 0.8 | 4 | – | –
30 | CCC(=O)OC [Methylpropionate] | 2.7 | 3.5 | 0.2 | 0 | – | –
31 | O=S(=O)(O)c1ccc(O)cc1 [4-Hydroxybenzenesulfonic acid] | – | – | 0.1 | 0 | 2.0 | B1 + 0.0125% DDBS + 0.05% SA (air entrainment) [4]: 2.1
32 | CCOC(=O)CC [Ethylpropionate] | – | – | 0.9 | 3 | 4.6 | B1 + 0.0125% DDBS + 0.05% SA (air entrainment) [4]: 4.9; Overall performance rating (second protocol rating) [3]: 3
33 | CCCCCCCC(=O)OC [Methyloctanoate] | – | – | 0.0 | 2 | 2.2 | B1 + 0.0125% DDBS + 0.05% SA (air entrainment) [4]: 4.8; Overall performance rating (second protocol rating) [3]: 2
34 | CCCCCC(=O)O [Hexanoic acid] | 5.1 | 4.9 | 2.4 | 4 | – | Overall performance rating (second protocol rating): 4
35 | C=CN1CCCC1=O [n-Vinyl-2-pyrrolidinone] | 3.7 | 4.3 | 2.8 | 1 | – | Overall performance rating (second protocol rating): 1
